Measurements reported in ChEMBL document CHEMBL1136813, “Bivalent biogenic amine reuptake inhibitors” (Bioorg Med Chem Lett, 2003).
pIC50, pKi: −log10 of the molar value.

Columns and labels:
[1] = target: T1, Sodium-dependent serotonin transporter (Homo sapiens, UniProt P31645); assay: Compound was tested for inhibition of [125I]RTI-55 binding to Serotonin transporter in HEK cells; type: cell-based, HEK293
Target sequence in this assay (P31645 whole entry): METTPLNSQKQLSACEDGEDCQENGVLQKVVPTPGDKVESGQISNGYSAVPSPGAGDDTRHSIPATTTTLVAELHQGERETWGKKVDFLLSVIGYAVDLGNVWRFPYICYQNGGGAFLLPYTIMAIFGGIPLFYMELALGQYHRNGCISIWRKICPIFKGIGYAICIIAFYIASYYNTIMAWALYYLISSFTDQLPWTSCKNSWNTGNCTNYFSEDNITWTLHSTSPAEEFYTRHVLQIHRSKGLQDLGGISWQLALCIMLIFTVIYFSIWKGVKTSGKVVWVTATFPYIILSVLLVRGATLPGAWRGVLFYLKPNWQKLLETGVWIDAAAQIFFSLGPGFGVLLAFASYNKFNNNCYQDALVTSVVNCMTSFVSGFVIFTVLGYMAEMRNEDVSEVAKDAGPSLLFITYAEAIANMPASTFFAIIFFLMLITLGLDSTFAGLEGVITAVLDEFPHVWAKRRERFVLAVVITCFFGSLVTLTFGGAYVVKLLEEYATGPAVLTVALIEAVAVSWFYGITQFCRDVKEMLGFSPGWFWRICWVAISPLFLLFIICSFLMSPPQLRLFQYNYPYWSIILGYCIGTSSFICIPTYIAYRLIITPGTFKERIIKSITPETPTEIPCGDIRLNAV

[2] = target: T1, Sodium-dependent serotonin transporter; assay: Ratio of uptake inhibition to binding affinity to human SERT (IC50/Ki)
Target sequence in this assay (P31645 whole entry, looked up): as the sequence (P31645 whole entry) above

[3] = target: T2, Sodium-dependent dopamine transporter (Homo sapiens, UniProt Q01959); assay: Compound was tested for inhibition of [125I]RTI-55 binding to dopamine transporter in HEK cells; type: cell-based, HEK293
T2 sequence (Q01959 whole entry): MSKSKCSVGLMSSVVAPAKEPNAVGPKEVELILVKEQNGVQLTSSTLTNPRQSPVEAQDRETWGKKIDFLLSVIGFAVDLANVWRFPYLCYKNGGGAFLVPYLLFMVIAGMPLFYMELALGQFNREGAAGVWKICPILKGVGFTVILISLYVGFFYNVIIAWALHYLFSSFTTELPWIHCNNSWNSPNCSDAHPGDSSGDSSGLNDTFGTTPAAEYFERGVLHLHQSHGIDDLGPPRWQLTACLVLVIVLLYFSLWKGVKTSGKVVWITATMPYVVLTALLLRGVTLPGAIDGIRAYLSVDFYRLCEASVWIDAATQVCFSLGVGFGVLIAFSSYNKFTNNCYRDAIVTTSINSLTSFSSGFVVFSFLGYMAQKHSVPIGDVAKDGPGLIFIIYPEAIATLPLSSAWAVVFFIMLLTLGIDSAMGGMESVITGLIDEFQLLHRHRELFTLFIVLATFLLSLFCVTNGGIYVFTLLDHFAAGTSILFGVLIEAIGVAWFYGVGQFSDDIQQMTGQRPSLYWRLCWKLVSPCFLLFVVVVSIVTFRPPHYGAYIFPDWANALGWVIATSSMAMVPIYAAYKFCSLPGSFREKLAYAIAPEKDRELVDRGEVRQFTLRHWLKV

[4] = target: T3, Sodium-dependent noradrenaline transporter (Homo sapiens, UniProt P23975); assay: Compound was tested for inhibition of [3H]NE binding to norepinephrine transporter HEK cells; type: cell-based, HEK293
T3 sequence (P23975 whole entry): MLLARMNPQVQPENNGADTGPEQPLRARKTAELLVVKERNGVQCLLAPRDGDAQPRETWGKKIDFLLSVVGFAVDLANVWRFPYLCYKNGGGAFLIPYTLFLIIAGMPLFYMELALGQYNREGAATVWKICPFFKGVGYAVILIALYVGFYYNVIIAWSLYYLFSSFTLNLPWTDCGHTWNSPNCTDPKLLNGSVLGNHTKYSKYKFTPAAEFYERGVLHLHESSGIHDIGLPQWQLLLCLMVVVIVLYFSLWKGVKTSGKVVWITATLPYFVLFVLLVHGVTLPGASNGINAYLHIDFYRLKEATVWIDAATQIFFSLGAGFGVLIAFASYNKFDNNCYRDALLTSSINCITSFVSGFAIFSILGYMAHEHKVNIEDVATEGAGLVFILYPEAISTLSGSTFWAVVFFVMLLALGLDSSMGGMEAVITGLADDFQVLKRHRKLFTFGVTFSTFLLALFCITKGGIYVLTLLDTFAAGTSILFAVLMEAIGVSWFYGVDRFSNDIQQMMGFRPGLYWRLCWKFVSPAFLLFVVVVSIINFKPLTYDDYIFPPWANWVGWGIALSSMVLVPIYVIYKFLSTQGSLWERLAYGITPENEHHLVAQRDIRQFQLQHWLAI

[5] = target: T1, Sodium-dependent serotonin transporter; assay: Compound was tested for inhibition of [3H]5-HT binding to Serotonin transporter in HEK cells; type: cell-based, HEK293
Target sequence in this assay (P31645 whole entry): as the sequence (P31645 whole entry) above

[6] = target: T3, Sodium-dependent noradrenaline transporter; assay: Compound was tested for inhibition of [125I]-RTI-55 binding to norepinephrine transporter HEK cells; type: cell-based, HEK293
[7] = target: T2, Sodium-dependent dopamine transporter; assay: Compound was tested for inhibition of [3H]DA binding to dopamine (DAT) transporter in HEK cells; type: cell-based, HEK293
[8] = target: T2, Sodium-dependent dopamine transporter; assay: Ratio of uptake inhibition to binding affinity to human DAT (IC50/Ki)
[9] = target: T3, Sodium-dependent noradrenaline transporter; assay: Ratio of uptake inhibition to binding affinity to human NET (IC50/Ki)

CN1C2CCC1C(C(=O)NCCCCCCNC(=O)C1C(c3ccc(Cl)cc3)CC3CCC1N3C)C(c1ccc(Cl)cc1)C2 (configuration not stated)
pKi [1]: 6.99
Ratio [2]: 2.2
pKi [3]: 7.74
pIC50 [4]: 5.73
pIC50 [5]: 6.65
pKi [6]: 6.48
pIC50 [7]: 5.85
Ratio [8]: 76.3
Ratio [9]: 5.59

CN1C2CCC1C(C(=O)NCCCCCCCCNC(=O)C1C(c3ccc(Cl)cc3)CC3CCC1N3C)C(c1ccc(Cl)cc1)C2 (configuration not stated)
pKi [1]: 8.10
Ratio [2]: 12.5
pKi [3]: 8.17
pIC50 [4]: 6.31
pIC50 [5]: 7.00
pKi [6]: 6.08
pIC50 [7]: 6.06
Ratio [8]: 130

COC(=O)C1C(c2ccc(Cl)cc2)CC2CCC1N2C (configuration not stated)
pKi [3]: 8.96
pIC50 [7]: 8.77

CN1C2CCC1C(C(=O)NCCCNC(=O)C1C(c3ccc(Cl)cc3)CC3CCC1N3C)C(c1ccc(Cl)cc1)C2 (configuration not stated)
pKi [1]: 6.45
Ratio [2]: 1.17
pKi [3]: 7.19
pIC50 [4]: 6.58
pIC50 [5]: 6.36
pKi [6]: 5.53
pIC50 [7]: 7.28
Ratio [8]: 0.8
Ratio [9]: 0.09

CN1C2CCC1C(C(=O)NCCCCNC(=O)C1C(c3ccc(Cl)cc3)CC3CCC1N3C)C(c1ccc(Cl)cc1)C2 (configuration not stated)
pKi [1]: 5.50
Ratio [2]: 0.06
pKi [3]: 7.66
pIC50 [4]: 5.65
pIC50 [5]: 6.75
pKi [6]: 5.68
pIC50 [7]: 5.78
Ratio [8]: 76.8
Ratio [9]: 1.09
